From US20240239729A1, “Functionalization of Lightly Branched Olefin Oligomers” (priority 2021, published 2024)

How the values were obtained:
Assay type in all cases: physicochemical
[1] = Solubility in water at 25° C. by visual observation; conditions: 2-3 hours magnetic stirring
Procedure: Solubility measurements were conducted in water at 25° C. Solubility was determined through visual observation after 2-3 hours of magnetic stirring of surfactant solutions having variable concentrations.

[2] = Calcium tolerance (hard water tolerance), surfactant remaining in filtrate by HPLC-ELSD; conditions: 25° C.; 450 ppm surfactant, 420 ppm cations (3:1 Ca2+:Mg2+), stood overnight, 0.22 μm filtrate
Procedure: Calcium tolerance was measured at 25° C. using the following procedure. A surfactant solution containing 450 ppm of alcohol sulfate surfactant and 420 ppm cations (3:1 Ca^2+:Mg^2+) was prepared and allowed to stand overnight. Crystals formed during this time. The supernatant liquid was removed and passed through a 0.22 μm filter to provide a filtrate. The filtrate was then analyzed for surfactant residue. Analysis of the surfactant and salt residue was performed using an Agilent 1100 HPLC combined with SEDEX 75 evaporative light scattering detector (ELSD) using the run conditions specified in Table 4 below. Peak height was utilized to analyze surfactant concentration. Some samples were repeated in triplicate. Calcium tolerance results are specified in Table 5 below.

[3] = Critical micelle concentration in water (Kruss K100 tensiometer)
Procedure: Critical micelle concentrations in water were measured using an A Kruss Laboratory K100 tensiometer. CMC values were determined using the K100 instrument's fully automated measurement method, as described further in the K100 instrument's operating manual.

| SMILES | Solubility at 25° C., (Wt. %) [1] [% Wt. %] | Calcium tolerance (ppm surfactant remaining) [2] [ppm] | CMC [3] [g/g] |
| --- | --- | --- | --- |
| CCCCCCCCCCCCCOS(=O)(=O)[O-].[Na+] [Entry 5, Sodium n-Tridecyl Sulfate] | <0.5 | 11.2 | 0.001 |
| CCCC(C)CCCC(C)CCCOS(=O)(=O)O (stereo not shown) [Entry 8, 4,8-dimethylundecan-1-sulfate] | – | – | 0.00129 |
